Measured values published in patent publication US20190274308A1, “METHOD FOR PROTECTING PLANTS FROM PESTS USING A PESTICIDE COMPOSITION WITH ADJUSTABLE PERSISTENCE AND DEGRADABILITY” (Flechsig Patent Company LLC, priority 2016, published 2019).

Type: physicochemical
Source text: A further characterizing parameter of the soil is the content of microorganisms, in particular bacteria, fungi and microfauna.
Tables 5 and 6 below indicate the degradation times of exemplary poly(alkyl)guanidines depending on various contents of microorganisms in the soil.
These determinations were obtained basically according to established methods, in particular as described in “Bodenbiologische Arbeitsmethoden”, 2nd revised and expanded edition, F. Schinner, E. Kandeler, R. Öhlinger, R. Margesin (eds.) (1993).
To determine the total bacterial count according to Trolldenier (1972), a soil suspension is applied onto a defined area of a slide and the dried soil film is stained with acridine orange. The bacterial count is determined in a plurality of counting fields under the fluorescence microscope and from this the total bacterial count of the soil sample is calculated.
The ergosterol of the soil fungi is saponified with KOH, extracted with n-hexane in the separating funnel, dried at 40° C. in the rotary evaporator and then dissolved in methanol. Detection is achieved by means of HPLC at 282 nm. The procedure is based on the method of Zelles et al. (1987) and was modified in a few points.
For the sake of simplicity calculation is performed using the dimensions of the dishes. At least 10 individuals per species should be measured. The resulting volume mean value can be equated numerically with the weight, as the specific mass of the microfauna is approximately 1 g cm^−3.

Substance	Difference days min/max degradation time, bact., fungi, microfauna [days]
poly(hexamethylene)guanidine [C6 PHMG]	30
poly(octamethylene)guanidine [C8 POMG]	36
poly(tetramethylene)guanidine [C4 PTMG]	22
